Consider 2 molecules from publication PMC10986512 (Microbiology Spectrum, 2024).

Data set [1] relates to VACV. Kind of data set: microbe, parasite or virus in culture. In kind it is cell-based, vaccinia virus (Western Reserve strain). The settings on record: for EC50: Orthopoxvirus vaccinia.
The next data set deals with MPXV. In kind it is cell-based, Mpox virus (West African clade US2003, clade IIa).
Data set [2] can be described thus: in vitro.
In a further data set the test system is RPXV. Kind of data set: microbe, parasite or virus in culture. In kind it is cell-based. The note with it: Rabbitpox virus, RAW264.7.
The subject of a further data set is CPXV. The data set is described as follows: microbe, parasite or virus in culture. In kind it is cell-based, cowpox virus (Brighton Red strain). The settings on record: Cowpox virus.
Data set [3] has as its system VACV. In kind it is in vivo, BALB/c mice. The settings on record: 21 days.
In data set [4] the test system is VACV. Further details: species or system BALB/c mice. The settings on record: mouse, in vivo.
The test system of data set [5] is VACV. Further details: species or system BALB/c mice. The note with it: mouse, in vivo. The source holds these as a separate data set.
The test system of data set [6] is NS5B-mediated replication of hepatitis C virus RNA. The note with it: cited from earlier work.
Another data set can be described thus: in vivo. The settings on record: C57BL/6, mouse.
The nature of data set [7]: in vitro. The note with it: mouse, plasma.
The nature of another data set: physchem. The note with it: pH 7.4, aqueous buffer.
The conditions of data set [8]: rat, in vivo; cited from earlier work.
The conditions of data set [9]: dog, in vivo; cited from earlier work.

In brackets after ≈: the same amount, converted by molar mass. Several values for one entry are separate records, joined by “and”; a condition that tells them apart may be missing. Equal values may be shown once. Read-outs that look alike come from different tables or passages of the source. Where only a bound is given, the exact number is not on record here.

For orientation: EC50 means the concentration that produces a half-maximal response. Read a low EC50 as an effect from little substance. On to `O=C(NN1C(=O)[C@@H]2[C@@H]3C=C[C@@H]([C@H]4C[C@@H]34)[C@@H]2C1=O)c1ccc(C(F)(F)F)cc1` [ST-246], for which the SI in the data set on VACV [1] was >750 and >666.7; in the data set on MPXV it was greater than 2189.8. For the same molecule, in the data set with VACV [1], the EC50 was 1 to 10 nM. In addition, the CC50 in “in vitro [2]” is greater than 30000 nM.

For orientation: bioavailability means the share of a dose that reaches the circulation, judged against a reference dose that is usually intravenous. A high value points to much systemic uptake. The clearance is a measure of how efficiently the substance is removed, as volume per time. Low values mean a low capacity for elimination, high ones a high capacity for elimination. The term half-life denotes how long it takes for the measured level to halve. The low end stands for fast loss, the high end for slow loss. What is called fraction unbound is free concentration divided by total concentration. The low end stands for extensive binding, the high end for weak binding. As a reminder, the solubility is the dissolved amount per volume that the medium holds. In the case of `C[C@@]1(O)[C@H](O)[C@@H](CO)O[C@H]1n1cc(F)c2c(N)ncnc21` [UMM-766, 7-fluoro-7-deaza-2′-C-methyladenosine], in the data set with VACV [1], the “EC50 and EC90 in MRC5 cells relative to RAW cells” value is on record as 3- to 15 fold; the EC50 was less than 1000 nM. This molecule also showed an EC50 in the data set with RPXV of less than 1000 nM. Moreover, the EC50 with CPXV is 2170 nM. Moreover, the EC50 in the data set on CPXV (MRC5) turned out to be 8090 nM. For the same molecule, the survival with VACV [3] is 66.7% and 80% and 100%. For the same molecule, in the data set on VACV [4], the “animals that met euthanasia criteria or died” value was “two”; the “maximum percentage weight change” value was −30.5% and −29.3% and −24.4%; the median survival is 8 days. For the same molecule, in the data set with VACV [5], the “IHC labeling in nasal cavity/turbinates” value is “minimal or absent labeling”; the “hemorrhage in the olfactory bulb” value was “completely absent”; the “meningeal necrosis in the olfactory bulb” value is “absent in two 3-mg/kg animals and two 10-mg/kg animals”; the “necrosis of the olfactory epithelium (nasal cavity, H&E)” value was “two animals having minimal necrosis and two with moderate necrosis”. Moreover, in the data set on VACV [5], the “severity of IHC labeling in nasal cavity/turbinates” value is on record as “markedly reduced” and the “severity/degree of IHC labeling in the lung” value is recorded as “mostly mild”. For the same molecule, in the data set with VACV [5] (10 mg/kg), the “IHC labeling in nasal cavity/turbinates” value is “labeling was absent”. Also, the “effect on NS5B-mediated replication of hepatitis C virus RNA” value in data set [6] was “decrease NS5B-mediated replication of hepatitis C virus RNA by chain termination”. In the data set “in vivo”, the bioavailability is 48.8%, the clearance was 154 mL/min/kg and the half-life is 2.9 h. In the data set “in vitro [7]”, this molecule showed a fraction unbound of 0.844. This molecule showed a solubility in “physchem” of 3300 µg/mL (≈ 11.1 mM). In addition, the highest tolerable dose in [8] is 10 mg/kg. In addition, in data set [9], the highest tolerable dose was 10 mg/kg.
